Source: patent publication US20210046106A1, “METHODS OF TREATING CANCER WITH ANDROGEN DEPRIVATION THERAPY IN COMBINATION WITH AN INHIBITOR OF THE SP1 TRANSCRIPTION FACTOR” (The Board of Trustees of the Leland Stanford Junior …, priority 2019, published 2021)
Several values for one entry are separate records, joined by “and”; a condition that tells them apart may be missing. Identical values can stand only once. Entries after “also recorded” stand apart in the source; their conditions may differ.

Legend:
[1] = Phase 1 trial of sodium selenite with palliative radiation therapy: adverse events / toxicity
From the text: Patients: This study was approved by the Food and Drug Administration (IND 122151), the Stanford University Internal Review Board, and the Scientific Review Committee for the Stanford Cancer Institute. […] The study was initially open only to prostate cancer patients, but then expanded to include a variety of tumor types. […] Before study entry, patients had to meet a number of eligibility criteria. Inclusion criteria included a) histologically-confirmed solid tumor malignancy with confirmation of metastasis, multiple myeloma, or plasmacytoma, b) need for palliative radiation therapy, c) for prostate cancer patients, PSA at least 2 ng/mL, except for patients who had recently started androgen deprivation therapy with PSA less than 2 ng/mL, d) […], e) life expectancy greater than 3 months, f) Eastern Cooperative Oncology Group (ECOG) performance status of zero or one or Karnofsky performance status 80%, and g) QT interval corrected using Fridericia's method (QTcF) <460 msec.
Patients were treated in groups of three with each receiving the same dose. […] Dose escalation was to proceed as follows: a) if none of the three patients experienced a dose limiting toxicity (DLT), dose escalation to the next dose level would occur, b) if one of three patients treated at that dose level experienced a DLT, that dose level would be expanded to six subjects; if no additional patient in that cohort experienced a DLT, dose escalation to the next dose level would occur, c) if two patients in a cohort experienced a DLT, dose escalation would stop and the prior dose would be considered the maximum tolerated dose (MTD). At that point the MTD was to be expanded to a total of six patients.
Baseline evaluations included EKG, PSA for prostate cancer patients, CBC with differential, CMP, LDH, bone scan (BS), or CT, PET/CT or MRI as clinically indicated to monitor response to therapy. Palliative radiation therapy utilized standard of care palliative dose/fractionation regimens. On Week 1, Day 1 patients underwent physical exam (PE), laboratory studies as above and EKG. All patients completed a pain inventory, the Brief Pain Inventory, prior to therapy. […] Weekly, during radiation therapy, patients had vital signs performed, with assessment of adverse events (AEs), labs and EKG if clinically indicated. The pain inventory was completed again on the last day of radiation therapy. Following completion of therapy, the first follow-up visit was within 2-3 months +/−2 weeks, with subsequent follow-up visits optional until progression of disease at the site of radiation. […] They also completed another pain inventory.

[2] = tested on: breast and ovarian cancer cell lines; conditions: 2 mg/kg, subcutaneous injection; cited from earlier work
[3] = 33 mg cohort, count-attribution

## O=[Se](O)O [sodium selenite, Sodium selenite pentahydrate]
[1]; 33 mg cohort
  Abdominal pain grade 1: Number of Occurrences: 3
  Abdominal pain grade 1: Number of Subjects Affected: 3
  Anemia grade 3: Number of Occurrences: 1
  Anemia grade 3: Number of Subjects Affected: 1
  Anemia grade 3: Relation to Selenite: Unrelated
  Back Pain grade 1: Number of Occurrences: 1
  Back Pain grade 1: Number of Subjects Affected: 1
  Back Pain grade 1: Relation to Selenite: Unrelated
  Bone Pain grade 1: Number of Occurrences: 1
  Bone Pain grade 1: Number of Subjects Affected: 1
  Bone Pain grade 1: Relation to Selenite: Unrelated
  Diarrhea grade 1: Number of Occurrences: 5
  Diarrhea grade 1: Number of Subjects Affected: 4
  Dizziness grade 1: Number of Occurrences: 1
  Dizziness grade 1: Number of Subjects Affected: 1
  Dizziness grade 1: Relation to Selenite: Probable
  Dysphagia grade 1: Number of Occurrences: 1
  Dysphagia grade 1: Number of Subjects Affected: 1
  Dysphagia grade 1: Relation to Selenite: Unrelated
  Dyspnea grade 1: Number of Occurrences: 1
  Dyspnea grade 1: Number of Subjects Affected: 1
  Dyspnea grade 1: Relation to Selenite: Unrelated
  Dyspnea grade 2: Number of Occurrences: 1
  Dyspnea grade 2: Number of Subjects Affected: 1
  Dyspnea grade 2: Relation to Selenite: Unrelated
  ECG QTcF Prolonged grade 1: Number of Occurrences: 2
  ECG QTcF Prolonged grade 1: Number of Subjects Affected: 2
  ECG QTcF Prolonged grade 1: Relation to Selenite: Probable
  Facial Pain grade 1: Number of Occurrences: 1
  Facial Pain grade 1: Number of Subjects Affected: 1
  Facial Pain grade 1: Relation to Selenite: Unrelated
  Fall (Mechanical) grade 2: Number of Occurrences: 2
  Fall (Mechanical) grade 2: Number of Subjects Affected: 1
  Fall (Mechanical) grade 2: Relation to Selenite: Unrelated
  Fatigue grade 1: Number of Occurrences: 2
  Fatigue grade 1: Number of Subjects Affected: 2
  Fatigue grade 1: Relation to Selenite: Possible
  Fatigue grade 2: Number of Occurrences: 2
  Fatigue grade 2: Number of Subjects Affected: 1
  Fatigue grade 2: Relation to Selenite: Unrelated,; also recorded: Possible
  Flu-like Symptoms grade 1: Number of Occurrences: 2
  Flu-like Symptoms grade 1: Number of Subjects Affected: 1
  Flu-like Symptoms grade 1: Relation to Selenite: Unrelated
  Nausea grade 1: Number of Occurrences: 8
  Nausea grade 1: Number of Subjects Affected: 5
  Nausea grade 2: Number of Occurrences: 1
  Nausea grade 2: Number of Subjects Affected: 1
  Paresthesia grade 1: Number of Occurrences: 1
  Paresthesia grade 1: Number of Subjects Affected: 1
  Paresthesia grade 1: Relation to Selenite: Unrelated
  Sore Throat grade 1: Number of Occurrences: 1
  Sore Throat grade 1: Number of Subjects Affected: 1
  Sore Throat grade 1: Relation to Selenite: Unrelated
  Upper Respiratory Infection grade 1: Number of Occurrences: 1
  Upper Respiratory Infection grade 1: Number of Subjects Affected: 1
  Upper Respiratory Infection grade 1: Relation to Selenite: Unrelated
  Vomiting grade 1: Number of Occurrences: 6
  Vomiting grade 1: Number of Subjects Affected: 2
  Vomiting grade 2: Number of Occurrences: 1
  Vomiting grade 2: Number of Subjects Affected: 1
  Vomiting grade 2: Relation to Selenite: Probable
[1]; [3]
  Abdominal pain grade 1: Relation to Selenite: 1-Possible, and 2-Probably
  Diarrhea grade 1: Relation to Selenite: 2-Possible, and 3-Probable
  Vomiting grade 1: Relation to Selenite: 4-Probable, and 2-Unlikely
[1]; 33 mg cohort, printed 7-Probable, 1-Unrelated over four lines
  Nausea grade 1: Relation to Selenite: Probable,; also recorded: Unrelated
[1]; 33 mg cohort, printed Probable/Definite over two lines
  Nausea grade 2: Relation to Selenite: Probable/; also recorded: Definite
[1]; 33 mg dose level
  primary toxicities: grade 1 GI side effects
[1]; 33 mg dose level, ECG review
  QT prolongation: grade 1 QT prolongation in 2 patients; also recorded: two patients had grade 1 ECG QTcF prolongations; also recorded: within the range of expected intra-subject variability
[1]; 33 mg dose level, listed as selenite
  primary toxicities: grade 1 GI side effects; also recorded: grade 1 GI toxicities
[1]; 49.5 mg cohort
  Back Pain grade 2: Number of Occurrences: 1
  Back Pain grade 2: Number of Subjects Affected: 1
  Back Pain grade 2: Relation to Selenite: Unrelated
  Diarrhea grade 2: Number of Occurrences: 1
  Diarrhea grade 2: Number of Subjects Affected: 1
  Diarrhea grade 2: Relation to Selenite: Possible
  Fatigue grade 1: Number of Occurrences: 1
  Fatigue grade 1: Number of Subjects Affected: 1
  Fatigue grade 1: Relation to Selenite: Possible
  Nausea grade 1: Number of Occurrences: 1
  Nausea grade 1: Number of Subjects Affected: 1
  Nausea grade 1: Relation to Selenite: Probable
  Nausea grade 2: Number of Occurrences: 1
  Nausea grade 2: Number of Subjects Affected: 1
  Nausea grade 2: Relation to Selenite: Probable
  Pain in Extremity grade 2: Number of Occurrences: 1
  Pain in Extremity grade 2: Number of Subjects Affected: 1
  Pain in Extremity grade 2: Relation to Selenite: Unrelated
  Vomiting grade 1: Number of Occurrences: 1
  Vomiting grade 1: Number of Subjects Affected: 1
  Vomiting grade 1: Relation to Selenite: Probable
  Vomiting grade 2: Number of Occurrences: 1
  Vomiting grade 2: Number of Subjects Affected: 1
  Vomiting grade 2: Relation to Selenite: Probable
[1]; 49.5 mg dose level, 1 patient
  toxicity in the one patient at 49.5 mg: grade 2 nausea/vomiting and diarrhea; also recorded: grade 2 GI toxicity; also recorded: grade 2 diarrhea, nausea and vomiting
[1]; 5.5, 11 and 16.5 mg dose levels, oral 2 h before RT
  toxicity / adverse events attributable to selenite: no toxicity attributable to selenite; also recorded: no adverse events attributable to selenite; also recorded: no AEs attributable to the selenite
[1]; 33 and 49.5 mg dose levels
  toxicities at all other dose levels: grade 1 and 2 GI toxicities
[1]; doses 5.5 to 49.5 mg po/day with RT
  maximum tolerated dose (MTD): not reached
[1]; oral once daily with RT, ondansetron prn
  highest acceptable / reasonably well tolerated dose: 33 mg
[2]
  effects on the host: without apparent ill effects on the host
